Data from patent US4547354A (priority 1983, dated 1985).
Where two headings read alike, the source gives them in different places.

Conditions: 95° C., 4 hours

OO [H2 O2, hydrogen peroxide]
% Hydrogen Peroxide Recovery (Example 1 of Table II: chlorobenzene 40.0 g, no acetone/methanol): 101% | Hydrogen Peroxide (mmoles) Recovered (Example 1 of Table II: chlorobenzene 40.0 g, no acetone/methanol, 93.6 mmoles in): 94.1 mmol | % Hydrogen Peroxide Recovery (Example 2 of Table II: chlorobenzene 40.0 g, with acetone and methanol): 67% | Hydrogen Peroxide (mmoles) Recovered (Example 2 of Table II: chlorobenzene 40.0 g, with acetone and methanol, 104.2 mmoles in): 69.4 mmol | % Hydrogen Peroxide Recovery (Example A: sulfuric acid, no chlorobenzene, no acetone/methanol): 107% | Hydrogen Peroxide (mmoles) Recovered (Example A: sulfuric acid, no chlorobenzene, no acetone/methanol, 104.0 mmoles in): 111.7 mmol | % Hydrogen Peroxide Recovery (Example B: no chlorobenzene, with acetone and methanol): 3% | Hydrogen Peroxide (mmoles) Recovered (Example B: no chlorobenzene, with acetone and methanol, 104.8 mmoles in): 3.2 mmol
